Read-outs that look alike come from different tables or passages of the source. Marks after values point to notes of the source that are not given here.
Experiments:
[1] = Dose limiting toxicity in patients, 21-day QD or BID dosing; type: in vivo
Method: (§1) A total of 43 patients were enrolled in the study. The tumor types were as follows: colorectal (23), sarcoma (5), mesothelioma (3), salivary gland (2), endometrial (2), unknown (2), hepatoma (1), melanoma (1), renal cell (1), lung (1), ovary (1), and granulosa cell (1). Patients were treated once a day (QD) or twice a day (BID) for 21 days with N-[2-[(4-hydroxyphenyl)amino]-3-pyridyl]-4-methoxybenzenesulfonamide followed by a 7-day period where no drug was received. Doses were escalated by 50 mg/day (25 mg BID). Three patients were initially treated at each dose level. […] If additional patients experienced dose-limiting toxicity, on occasion the dose level was expanded to nine patients to further assess tolerability. Response assessment was performed every two cycles.

[2] = tested on: HT-29 colon subcutaneous flank xenografts; assay: HT-29 flank xenograft model; type: in vivo, nude mice; conditions: for Tumor Volume Day 38: mean ± SEM; for % ILS: median, time to 1 cc vs vehicle; for % T/C Day 38: treated vs vehicle
Method: Efficacy of N-[2-[(4-hydroxyphenyl)amino]-3-pyridyl]-4-methoxybenzenesulfonamide was tested in Calu-6 NSCL, MDA-MB-468 breast and HT-29 colon carcinoma xenografts grown in nude mice. The objectives were determination of the efficacy of N-[2-[(4-hydroxyphenyl)amino]-3-pyridyl]-4-methoxybenzenesulfonamide as a single agent and in combination with cisplatin in the Calu-6 NSCL flank xenograft model; determination the efficacy of N-[2-[(4-hydroxyphenyl)amino]-3-pyridyl]-4-methoxybenzenesulfonamide as a single agent and in combination with docetaxel in the MDA-MB 468 breast flank xenograft model; determination of the efficacy of N-[2-[(4-hydroxyphenyl)amino]-3-pyridyl]-4-methoxybenzenesulfonamide as a single agent and in combination with 5-FU in the HT-29 colon flank xenograft model; and comparison the efficacy of N-[2-[(4-hydroxyphenyl)amino]-3-pyridyl]-4-methoxybenzenesulfonamide administered on 2 different schedules (q.d. vs b.i.d.) in the Calu-6 and HT-29 xenogaft model.
Following inoculation of tumor cells, tumors were passaged three times in mice before using the fragments to generate single cell suspensions. Multiple animals were used as donors. Single cell suspensions were generated by homogenizing the minced tumor tissue in RPMI 1640 media. Cell suspensions were washed three times to remove debris and other foreign materials. Viable cells were counted by trypan blue exclusion technique using a hemocytometer. Mice were injected subcutaneously with 0.5 ml of the cell suspension containing 1×10^6 cells.
Tumor cells derived from serially passaged tumor fragments were inoculated s.c. in female nude mice on day 0. On day 10, mice bearing established tumors were size matched at ˜236 mm^3 and placed into the following groups:
1. N-[2-[(4-hydroxyphenyl)amino]-3-pyridyl]-4-methoxybenzenesulfonamide—100, and 75 mg/kg/day (p.o., q.d., 5 days on, 5 days off ×2)
2. N-[2-[(4-hydroxyphenyl)amino]-3-pyridyl]-4-methoxybenzenesulfonamide—50 and 0 mg/kg/day (p.o., q.d. ×21 or p.o., b.i.d. ×21)
Combination Therapy—100/30, 75/30, mg/kg/day (p.o., q.d., 5 days on, 5 days off ×2/ip, qd ×1), 50/10 mg/kg/day (p.o., q.d., ×21/ip, qd ×1).

[3] = Pharmacokinetic profiles of patients on the extended dosing regimen (plasma, LCMS/MS, day 15); type: in vivo; conditions: for AUC / half-life / Cmax / concentration at 15 day / Tmax: human, plasma, po; for concentration at 15 day: read-out: Cmin
Method: as §1
In evaluating the pharmacokinetic profiles of the patients, plasma samples were collected pre-dose and over 6 hours following dosing on day 15. Plasma concentrations of N-[2-[(4-hydroxyphenyl)amino]-3-pyridyl]-4-methoxybenzenesulfonamide were determined by a validated LCMS/MS assay. Pharmacokinetic parameter estimates were obtained using noncompartmental methods, and included maximum observed concentration (Cmax), time to Cmax (Tmax), minimum observed concentration (Cmin), half-life (t1/2), and area under the plasma concentration-time profile over a dosing interval (AUCτ). To facilitate calculation of day 15 AUCs, pre-dose concentrations at the beginning and end of the dosing interval were assumed to be equal. Results are summarized below (Table 2).

[4] = 75 mg/kg/day p.o., q.d., (5 days on, 5 days off) x2
[5] = 100 mg/kg/day p.o., q.d., (5 days on, 5 days off) x2
[6] = 25 mg, 25 mg BID oral, day 15, plasma, N=2
[7] = 25 mg, 25 mg QD oral, day 15, plasma, N=4
[8] = 50 mg, 50 mg BID oral, day 15, plasma, N=2
[9] = 50 mg, 50 mg QD oral, day 15, plasma, N=3
[10] = 75 mg, 75 mg BID oral, day 15, plasma, N=3
[11] = 100 mg, 100 mg BID oral, day 15, plasma, N=3
[12] = 100 mg, 100 mg QD oral, day 15, plasma, N=3
[13] = 200 mg, 200 mg QD oral, day 15, plasma, N=2

## COc1ccc(S(=O)(=O)Nc2cccnc2Nc2ccc(O)cc2)cc1 [N-[2-[(4-hydroxyphenyl)amino]-3-pyridyl]-4-methoxybenzenesulfonamide]
[1]; patients receiving up to 150 mg of drug per day
  dose limiting toxicity: No dose limiting toxicity
[1]; patients, QD or BID for 21 days followed by 7 days off
  dose limiting toxicities observed: ileus, peripheral neuropathy, fatigue, and abdominal pain
[2]; 50 mg/kg/day p.o., b.i.d x21
  Tumor Volume Day 38: 1158 ± 62 mm^3
  % ILS: 36*** %
  % T/C Day 38: 51*** %
[2]; 50 mg/kg/day p.o., q.d x21
  Tumor Volume Day 38: 1244 ± 55 mm^3
  % ILS: 36*** %
  % T/C Day 38: 55*** %
[2]; [4]
  Tumor Volume Day 38: 942 ± 46 mm^3
  % ILS: 50*** %
  % T/C Day 38: 43*** %
[2]; [5]
  Tumor Volume Day 38: 619 ± 40 mm^3
  % ILS: 75*** %
  % T/C Day 38: 28*** %
[2]; 100 and 75 mg/kg/day, 5 days on, 5 days off for 2 cycles
  antitumor activity as a single agent: significant antitumor activity
[2]; in combination with 5-FU
  efficacy of combination compared to single agents alone (summary): equal to or greater than additive efficacy
[2]; in combination with 5-FU at 30 mg/kg/day, at the higher doses
  response in combination with 5-FU: additive responses
[2]; q.d. or b.i.d. for 21 days
  efficacy q.d. vs b.i.d. (summary): equal efficacy
[2]; single agent
  efficacy as a single agent (summary): dose-dependent efficacy
[3]; 150 mg QD oral, day 15, plasma, N=3
  Cmin: 700 ± 400 ng/mL
[3]; QD or BID dosing
  accumulation of plasma concentrations: accumulated minimally
[3]; across doses studied
  variation of Tmax and t1/2 with dose: did not appear to vary with dose
[3]; across the range of doses studied
  dose proportionality of plasma concentrations: dose-proportional (linear) pharmacokinetics
[3]; for a given daily dose
  Cmin concentrations, BID vs QD regimens: tended to be greater for BID regimens compared to QD regimens
[3]; 25 mg, 25 mg BID oral, day 15, N=2, AUC0-12
  AUC: 9100 ± 400 ng·h/mL
[3]; 25 mg, 25 mg BID oral, day 15, N=2, harmonic mean and pseudo standard deviation, read-out: t1/2 (converted)
  half-life: 3.8 ± 1.7 h
[3]; [6]
  Cmax: 2000 ± 600 ng/mL
  concentration at 15 day: 300 ng/mL
[3]; 25 mg, 25 mg BID oral, day 15, plasma, N=2, read-out: Tmax
  Tmax: 2.3 ± 2.5 h
[3]; 25 mg, 25 mg QD oral, day 15, N=4, AUC0-24
  AUC: 9000 ± 2900 ng·h/mL
[3]; 25 mg, 25 mg QD oral, day 15, N=4, harmonic mean and pseudo standard deviation, read-out: t1/2 (converted)
  half-life: 6.3 ± 0.2 h
[3]; [7]
  Cmax: 1700 ± 300 ng/mL
  concentration at 15 day: 100 ng/mL
[3]; 25 mg, 25 mg QD oral, day 15, plasma, N=4, read-out: Tmax
  Tmax: 1.3 ± 0.5 h
[3]; 50 mg, 50 mg BID oral, day 15, N=2, AUC0-12
  AUC: 16400 ± 3200 ng·h/mL
[3]; 50 mg, 50 mg BID oral, day 15, N=2, harmonic mean and pseudo standard deviation, read-out: t1/2 (converted)
  half-life: 4 ± 0.6 h
[3]; [8]
  Cmax: 5000 ± 900 ng/mL
  concentration at 15 day: 400 ± 200 ng/mL
[3]; 50 mg, 50 mg BID oral, day 15, plasma, N=2, read-out: Tmax
  Tmax: 0.5 h
[3]; 50 mg, 50 mg QD oral, day 15, N=3, AUC0-24
  AUC: 20400 ± 5000 ng·h/mL
[3]; 50 mg, 50 mg QD oral, day 15, N=3, harmonic mean and pseudo standard deviation, read-out: t1/2 (converted)
  half-life: 4.6 ± 2.4 h
[3]; [9]
  Cmax: 3500 ± 200 ng/mL
  concentration at 15 day: 100 ± 100 ng/mL
[3]; 50 mg, 50 mg QD oral, day 15, plasma, N=3, read-out: Tmax
  Tmax: 1.7 ± 0.6 h
[3]; 75 mg, 75 mg BID oral, day 15, N=3, AUC0-12
  AUC: 17000 ± 3600 ng·h/mL
[3]; 75 mg, 75 mg BID oral, day 15, N=3, harmonic mean and pseudo standard deviation, read-out: t1/2 (converted)
  half-life: 5.3 ± 0.9 h
[3]; [10]
  Cmax: 3700 ± 1200 ng/mL
  concentration at 15 day: 600 ng/mL
[3]; 75 mg, 75 mg BID oral, day 15, plasma, N=3, read-out: Tmax
  Tmax: 1.5 ± 0.9 h
[3]; 100 mg, 100 mg BID oral, day 15, N=3, AUC0-12
  AUC: 24100 ± 10000 ng·h/mL
[3]; 100 mg, 100 mg BID oral, day 15, N=3, harmonic mean and pseudo standard deviation, read-out: t1/2 (converted)
  half-life: 6.1 ± 2.3 h
[3]; [11]
  Cmax: 3500 ± 1300 ng/mL
  concentration at 15 day: 900 ± 400 ng/mL
[3]; 100 mg, 100 mg BID oral, day 15, plasma, N=3, read-out: Tmax
  Tmax: 2.3 ± 1.5 h
[3]; 100 mg, 100 mg QD oral, day 15, N=3, AUC0-24
  AUC: 39500 ± 7900 ng·h/mL
[3]; 100 mg, 100 mg QD oral, day 15, N=3, harmonic mean and pseudo standard deviation, read-out: t1/2 (converted)
  half-life: 5.8 ± 1.3 h
[3]; [12]
  Cmax: 8400 ± 900 ng/mL
  concentration at 15 day: 200 ± 100 ng/mL
[3]; 100 mg, 100 mg QD oral, day 15, plasma, N=3, read-out: Tmax
  Tmax: 1.7 ± 0.6 h
[3]; 150 mg, 150 mg QD oral, day 15, N=3, AUC0-24
  AUC: 55100 ± 12200 ng·h/mL
[3]; 150 mg, 150 mg QD oral, day 15, N=3, harmonic mean and pseudo standard deviation, read-out: t1/2 (converted)
  half-life: 8.5 ± 1.5 h
[3]; 150 mg, 150 mg QD oral, day 15, plasma, N=3
  Cmax: 8200 ± 2300 ng/mL
[3]; 150 mg, 150 mg QD oral, day 15, plasma, N=3, read-out: Tmax
  Tmax: 1.2 ± 0.8 h
[3]; 200 mg, 200 mg QD oral, day 15, N=2, AUC0-24
  AUC: 60200 ± 34200 ng·h/mL
[3]; 200 mg, 200 mg QD oral, day 15, N=2, harmonic mean and pseudo standard deviation, read-out: t1/2 (converted)
  half-life: 7 ± 1 h
[3]; [13]
  Cmax: 9100 ± 5900 ng/mL
  concentration at 15 day: 500 ± 300 ng/mL
[3]; 200 mg, 200 mg QD oral, day 15, plasma, N=2, read-out: Tmax
  Tmax: 2 h
[3]; oral dosing, all regimens, read-out: overall mean Tmax
  Tmax: 1.5 h
[3]; oral dosing, all regimens, read-out: overall mean t1/2 (converted)
  half-life: 6 h
[3]; oral dosing, patients
  absorption following oral dosing: rapidly absorbed
